Source: ChEMBL document CHEMBL3785088, “Synthesis, anti-inflammatory, analgesic and COX-1/2 inhibition activities of anilides based on 5,5-diphenylimidazolidine-2,4-dione scaffold: Molecular docking studies” (Eur J Med Chem, 2016)

Key:
[1] = target: T1, Prostaglandin G/H synthase 1 (Ovis aries, UniProt P05979); test: Inhibition of ovine COX1 preincubated for 5 mins followed by addition of arachidonic acid as substrate measured after 2 mins by enzyme immunoassay
T1 sequence (P05979 whole entry): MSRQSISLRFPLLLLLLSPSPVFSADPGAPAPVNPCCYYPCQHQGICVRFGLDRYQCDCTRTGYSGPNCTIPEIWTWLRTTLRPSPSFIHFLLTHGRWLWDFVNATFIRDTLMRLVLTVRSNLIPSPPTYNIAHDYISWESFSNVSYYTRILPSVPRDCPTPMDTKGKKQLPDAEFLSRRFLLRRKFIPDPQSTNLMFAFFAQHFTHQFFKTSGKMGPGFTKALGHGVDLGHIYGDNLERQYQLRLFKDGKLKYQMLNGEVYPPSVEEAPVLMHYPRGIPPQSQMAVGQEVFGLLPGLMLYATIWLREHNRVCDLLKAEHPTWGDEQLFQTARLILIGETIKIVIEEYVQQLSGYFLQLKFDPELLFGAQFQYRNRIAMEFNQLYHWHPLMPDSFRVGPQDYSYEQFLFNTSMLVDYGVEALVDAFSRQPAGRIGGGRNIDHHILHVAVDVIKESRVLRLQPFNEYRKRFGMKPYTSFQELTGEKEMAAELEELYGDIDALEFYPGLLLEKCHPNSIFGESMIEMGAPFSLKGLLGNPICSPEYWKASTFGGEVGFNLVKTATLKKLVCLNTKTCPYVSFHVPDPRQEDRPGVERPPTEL

Rattus norvegicus = test: Antiinflammatory activity in ip dosed Sprague-Dawley rat assessed as inhibition of carrageenan-induced foot paw edema measured 2 hrs post carrageenan challenge by plethysmometry; assay type: functional
Mus musculus = test: Analgesic activity in ip dosed albino Swiss mouse assessed as reduction in licking and blowing response at 58 deg C measured after 60 mins by hot plate test; assay type: functional; details: 1 h

Compound | IC50 [1] [µM] | ED50 (Rattus norvegicus) [mg/kg] | ED50 (Mus musculus) [mg/kg]
COc1ccc(NC(=O)CN2C(=O)NC(c3ccccc3)(c3ccccc3)C2=O)cc1 | > 100 | 120 | 86
O=C(CN1C(=O)NC(c2ccccc2)(c2ccccc2)C1=O)NCc1ccc(F)cc1 | > 100 | 120 | 90.9
O=C(CN1C(=O)NC(c2ccccc2)(c2ccccc2)C1=O)NCc1ccccc1 |  | > 200 | 
COc1ccc(CNC(=O)CN2C(=O)NC(c3ccccc3)(c3ccccc3)C2=O)cc1 | > 100 | 109 | 67.3
NS(=O)(=O)c1ccc(NC(=O)CCN2C(=O)NC(c3ccccc3)(c3ccccc3)C2=O)cc1 | > 100 | 75 | 40.3
O=C(CCN1C(=O)NC(c2ccccc2)(c2ccccc2)C1=O)Nc1ccc(F)cc1 | > 100 | 123 | 80.1
NS(=O)(=O)c1ccc(NC(=O)CN2C(=O)NC(c3ccccc3)(c3ccccc3)C2=O)cc1 | > 100 | 97 | 66.2
O=C(CN1C(=O)NC(c2ccccc2)(c2ccccc2)C1=O)c1ccc(F)cc1 | 70.5 | 156 | 142
COc1ccc(/C=N/NC(=O)CN2C(=O)NC(c3ccccc3)(c3ccccc3)C2=O)cc1 |  | > 200 | 
COc1ccc(/C=N/N2C(=O)NC(c3ccccc3)(c3ccccc3)C2=O)cc1 |  | > 200 | 
COc1ccc(C(=O)CN2C(=O)NC(c3ccccc3)(c3ccccc3)C2=O)cc1 | 70.5 | 155 | 184
O=C(CCN1C(=O)NC(c2ccccc2)(c2ccccc2)C1=O)NCc1ccccc1 |  | > 200 | 
O=C(CN1C(=O)NC(c2ccccc2)(c2ccccc2)C1=O)N/N=C/c1ccccc1 |  | > 200 | 
O=C(CN1C(=O)NC(c2ccccc2)(c2ccccc2)C1=O)Nc1ccccc1 |  | > 200 | 
O=C(CCN1C(=O)NC(c2ccccc2)(c2ccccc2)C1=O)Nc1ccccc1 |  | > 200 | 
COc1ccc(NC(=O)CCN2C(=O)NC(c3ccccc3)(c3ccccc3)C2=O)cc1 | > 100 | 98 | 71.1
NS(=O)(=O)c1ccc(CNC(=O)CN2C(=O)NC(c3ccccc3)(c3ccccc3)C2=O)cc1 | > 100 | 75 | 54.6
COc1ccc(CNC(=O)CCN2C(=O)NC(c3ccccc3)(c3ccccc3)C2=O)cc1 | > 100 | 112 | 122
O=C(CN1C(=O)NC(c2ccccc2)(c2ccccc2)C1=O)N/N=C/c1ccc(F)cc1 |  | > 200 | 
COc1cc(CNC(=O)CN2C(=O)NC(c3ccccc3)(c3ccccc3)C2=O)cc(OC)c1OC | > 100 | 90 | 68.5
O=C(CN1C(=O)NC(c2ccccc2)(c2ccccc2)C1=O)Nc1ccc(F)cc1 | > 100 | 129 | 119
O=C(CCN1C(=O)NC(c2ccccc2)(c2ccccc2)C1=O)NCc1ccc(F)cc1 | > 100 | 122 | 75
O=C(CN1C(=O)NC(c2ccccc2)(c2ccccc2)C1=O)c1ccccc1 |  | > 200 | 
Cc1ccc(-c2cc(C(F)(F)F)nn2-c2ccc(S(N)(=O)=O)cc2)cc1 [CELECOXIB] |  | 86.4 | 74.1
